System: monocyte-derived dendritic cells (moDCs)
Test: Multiplex xMAP cytokine production, direct stimulation of moDCs
Assay type: cell-based, human
Conditions: 24 h
Experimental: Primary peripheral blood mononuclear cells (PBMCs) collected from healthy donors were purchased from American Type Culture Collection (ATCC PCS-800-011). Primary CD14^+ blood monocytes were isolated from PBMCs by adherence according to standard technique. Monocyte-derived mature dendritic cells (moDCs) were obtained from CD14^+ blood monocytes according to the previously reported protocol. Briefly, blood monocytes were incubated in a complete RPMI-1640 medium (Capricorn Scientific, Ebsdorfergrund, Germany), containing 10% fetal bovine serum (FBS, Capricorn Scientific, Ebsdorfergrund, Germany), 1× antibiotic-antimycotic solution (Invitrogen, Waltham, MA, USA), 800 U/mL rhGM-CSF (Sci-Store, Moscow, Russia) and 500 U/mL rhIL-4 (Sci-Store) for 3 days in CellXpert C170i CO2-incubator (Eppendorf, Hamburg, Germany). Fresh complete RPMI-1640 medium with rhGM-CSF and rhIL-4 was added to the culture on day 3. On day 5, fresh complete RPMI-1640 containing 100 U/mL rhTNF-α (Sigma-Aldrich, St. Louis, MO, USA) as well as 800 U/mL rhGM-CSF and 500 U/mL rhIL-4 was added and the culture was incubated for another 4 days until full maturation.
Monocytes and moDCs were seeded into the wells of 48- and 24-well plates in the complete RPMI-1640 medium supplemented with 10% human AB serum (HABS, Capricorn Scientific) without antibiotics 24 h prior to the experiment, and kept in a humidified CO2-incubator (5% CO2, 37 °C). After 24 h, the medium in the wells of the 48-well plate was replaced by fresh complete RPMI-1640 medium with 10% HABS, supplemented with 2 µM of Psd1 for the sample wells or fresh medium alone for the control wells. Medium in the wells of the 24-well plate was replaced by fresh complete RPMI-1640 medium with 10% human serum without antibiotics. Then, Millicell inserts with Caco-2 monolayers with TEER > 400 Ωcm^2 were placed into the wells of the 24-well plate, containing monocytes or moDCs. Wells with Millicell inserts with Caco-2 monolayers without immune cells were used as control wells. Medium in apical chambers of Millicell inserts was replaced by fresh complete RPMI-1640 with 10% human serum medium containing Psd1 at the final concentration of 2 µM or Candida albicans at the concentration of 5 × 10^4 cells/mL or yeast cells together with the pea defensin at the same concentration. Fresh complete RPMI-1640 medium only with 10% human serum and without antibiotics was used in control wells. Plates were kept in CO2-incubator (5% CO2, 37 °C) for another 24 h. Culture supernatants from the wells of the 48-well plate and basolateral chambers of the 24-well plate were collected and stored at −70 °C degrees less than one month prior to the analytes assessment.
The following 48 analytes were measured at a protein level by multiplex xMAP technology using the MILLIPLEX Human Cytokine/Chemokine/Growth Factor Panel A kit (HCYTA-60K-PX48, Merck, Darmstadt, Germany): sCD40L, EGF, Eotaxin-1/CCL11, FGF-2/FGF-basic, Flt-3 ligand, Fractalkine/CX3CL1, G-CSF, GM-CSF, GROα/CXCL1, IFNα2, IFNγ, IL-1α, IL-1β, IL-1RA, IL-2, IL-3, IL-4, IL-5, IL-6, IL-7, IL-8/CXCL8, IL-9, IL-10, IL-12(p40), IL-12(p70), IL-13, IL-15, IL-17A/CTLA8, IL-17E/IL-25, IL-17F, IL-18, IL-22, IL-27, IP-10/CXCL10, MCP-1/CCL2, MCP-3/CCL7, M-CSF, MDC/CCL22, MIG/CXCL9, MIP-1α/CCL3, MIP-1β/CCL4, PDGF-AA, PDGF-AB/BB, RANTES/CCL5, TGFα, TNFα, TNFβ, and VEGF-A. Multiplex-based assay read-out was performed using the MAGPIX system (Merck) with the xPONENT 4.2 software (Merck) in accordance with the manufacturer’s instruction with overnight incubation of the samples with primary antibodies. A final analysis was carried out with the MILLIPLEX Analyst v5.1 software (Merck). Measurements were performed twice for each sample. Release of the analytes in control and experimental samples was compared with an unpaired two-sample t-test using GraphPad Prism v.8.0.1 (GraphPad Software, Inc., San Diego, CA, USA). The p values ≤ 0.05 were considered significant.

## Psd1: pea defensin from Pisum sativum (UNIPROT P81929), recombinant peptide overexpressed in Escherichia coli (KTCEHLADTYRGVCFTNASCDDHCKNKAHLISGTCHNWKCFCTQNC; UniProt P81929 1-46, looked up)
moDCs+Psd1, 2 µM, supernatant
  EGF level: 6.22 pg/mL
  Eotaxin level: <3.52↓ pg/ml
  FGF-2 level: 55.36 pg/mL
  FLT-3L level: 1.05 pg/mL
  Fractalkine level: <17.82↓ pg/ml
  G-CSF level: 49.49 pg/mL
  GM-CSF level: 11.89 pg/mL
  GROa level: <0.61↓ pg/ml
  IFNa2 level: 12.78 pg/mL
  IFNg level: 7.25 pg/mL
  IL-1RA level: 53.29 pg/mL
  IL-1a level: 12.23 pg/mL
  IL-1b level: <2.26↓ pg/ml
  IL-2 level: 1.82 pg/mL
  IL-3 level: 1.61 pg/mL
  IL-4 level: <1.14↓ pg/ml
  IL-5 level: 4.15 pg/mL
  IL-6 level: 14.4 pg/mL
  IL-7 level: <0.38↓ pg/ml
  IL-8 level: 345.9 pg/mL
  IL-9 level: 3.67 pg/mL
  IL-10 level: 33.74 pg/mL
  IL-12 (p40) level: 98.57 pg/mL
  IL-12 (p70) level: <1.68↓ pg/ml
  IL-13 level: 19.51 pg/mL
  IL-15 level: 12.91 pg/mL
  IL-17A level: 3.9 pg/mL
  IL-17E/IL-25 level: <18.85↓ pg/ml
  IL-17F level: <19.03↓ pg/ml
  IL-18 level: 2.59 pg/mL
  IL-22 level: 12.46 pg/mL
  IL-27 level: 135.68 pg/mL
  IP-10 level: 8892 pg/mL
  M-GSF level: 218.78 pg/mL
  MCP-1 level: 1760 pg/mL
  MCP-3 level: 49.77 pg/mL
  MDC level: 3016 pg/mL
  MIG level: 30050 pg/mL
  MIP-1a level: 185.33 pg/mL
  MIP-1b level: 554.97 pg/mL
  PDGF-AA level: 89.5 pg/mL
  PDGF-AB/BB level: 139.81 pg/mL
  RANTES level: 65.35 pg/mL
  TGF-a level: 113.74 pg/mL
  TNFa level: 55.68 pg/mL
  TNFb level: 2.29 pg/mL
  VEGFa level: <1.40↓ pg/ml
  sCD40L level: 133.96 pg/mL
moDCs, 2 μM
  increase in IL-12, IL-15, IL-27 and MCP-1: statistically significant
  production of TNFα, IL-6, IL-8, IP-10, MCP-3, and G-CSF: increased
